Legend:
xanthine oxidase (XOD) [1] = target: T1, xanthine oxidase (XOD) (Bos taurus, UniProt P80457); experiment: spectrophotometric uric acid formation assay at […] nm; reversibility plots; type: biochemical
T1 construct: gene XDH

xanthine oxidase (XOD) [2] = target: T1, xanthine oxidase (XOD); experiment: spectrophotometric uric acid formation assay at […] nm, % inhibition at […]; type: biochemical; conditions: read-out: % inhibition at 100 μg/mL

T1 sequence (P80457 2-1332): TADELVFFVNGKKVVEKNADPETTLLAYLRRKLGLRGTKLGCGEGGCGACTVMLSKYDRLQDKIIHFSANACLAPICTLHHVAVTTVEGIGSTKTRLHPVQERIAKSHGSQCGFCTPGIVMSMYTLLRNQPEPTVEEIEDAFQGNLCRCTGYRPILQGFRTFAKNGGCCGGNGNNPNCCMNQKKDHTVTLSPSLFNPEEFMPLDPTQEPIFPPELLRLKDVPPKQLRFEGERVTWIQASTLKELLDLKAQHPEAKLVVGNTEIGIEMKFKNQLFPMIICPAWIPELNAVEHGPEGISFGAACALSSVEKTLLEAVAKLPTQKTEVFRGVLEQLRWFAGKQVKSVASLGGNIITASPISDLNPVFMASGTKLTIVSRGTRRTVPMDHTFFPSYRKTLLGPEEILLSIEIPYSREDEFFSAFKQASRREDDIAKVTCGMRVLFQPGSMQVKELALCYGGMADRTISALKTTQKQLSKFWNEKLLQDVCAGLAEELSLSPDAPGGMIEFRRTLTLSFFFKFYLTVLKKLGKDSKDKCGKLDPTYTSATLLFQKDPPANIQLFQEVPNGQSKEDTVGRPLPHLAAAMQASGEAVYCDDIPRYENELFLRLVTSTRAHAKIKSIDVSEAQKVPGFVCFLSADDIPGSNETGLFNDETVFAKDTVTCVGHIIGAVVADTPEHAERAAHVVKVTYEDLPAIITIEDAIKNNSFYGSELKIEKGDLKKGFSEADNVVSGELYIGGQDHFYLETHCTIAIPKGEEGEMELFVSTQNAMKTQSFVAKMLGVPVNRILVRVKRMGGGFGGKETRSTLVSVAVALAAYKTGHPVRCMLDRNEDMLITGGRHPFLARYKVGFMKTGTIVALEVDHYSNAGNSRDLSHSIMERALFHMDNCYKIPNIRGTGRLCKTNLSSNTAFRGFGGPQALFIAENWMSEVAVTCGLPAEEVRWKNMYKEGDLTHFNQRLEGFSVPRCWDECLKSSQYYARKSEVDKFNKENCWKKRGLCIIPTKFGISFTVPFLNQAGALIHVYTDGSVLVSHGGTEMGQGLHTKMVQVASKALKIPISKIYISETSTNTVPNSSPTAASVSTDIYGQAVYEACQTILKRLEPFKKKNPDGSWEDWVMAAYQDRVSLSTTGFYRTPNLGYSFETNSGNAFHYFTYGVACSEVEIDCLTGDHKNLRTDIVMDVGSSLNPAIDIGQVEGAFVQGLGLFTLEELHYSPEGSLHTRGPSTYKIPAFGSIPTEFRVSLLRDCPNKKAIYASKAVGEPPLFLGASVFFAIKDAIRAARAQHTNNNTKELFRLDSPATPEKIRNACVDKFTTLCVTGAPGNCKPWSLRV

Row | Structure (SMILES) | IC50 (xanthine oxidase (XOD) [1]) [µM] | inhibition at 100 µg/mL (xanthine oxidase (XOD) [2]) [%]
1 | O=C(/C=C/c1ccc(O)c(O)c1)O[C@@H]1CC(C(=O)O)=C[C@@H](O)[C@H]1O [compound 1, 5-O-caffeoylshikimic acid] | 14 | –
2 | O=c1c(O)c(-c2ccc(O)c(O)c2)oc2cc(O)cc(O)c12 [compound 3, quercetin] | – | 82.1
3 | C[C@@H]1O[C@@H](O[C@H]2C(=O)c3c(O)cc(O)cc3O[C@@H]2c2ccc(O)c(O)c2)[C@H](O)[C@H](O)[C@H]1O [compound 6, astilbin] | – | 33.2
